Experimental findings from patent publication US20100203614A1, “FATTY ALDEHYDE REDUCTASE” (Utah State University, priority 2009, published 2010) are described below.

The test system of experiment [1] is MBP-FALDR enzyme. Nature of the experiment: Initial assessment of activity: overnight reaction with NADPH/NADH or NADP+, GC/GC-MS analysis. The format is biochemical, Marinobacter aquaeolei VT8. The procedure:
For initial assessment of the activity of the purified MBP-FALDR enzyme, 50 μg of purified MBP-FALDR protein was added to a reaction mixture containing 100 mM of Tris buffer at pH 7.9, 100 mM NaCl, 2.4 mM of either NADPH or NADH as a reductant, and decanal, oleic acid, and hexadecanol as possible substrates. The assays were run under an argon atmosphere in septa sealed vials overnight at room temperature with constant gentle mixing. The products of the reactions were then extracted from the buffer by adding an equal volume of hexane and organic layer components were analyzed by gas chromatography equipped with a flame ionization detector (Forte HT5 column (SGE Analytical Science, Austin, Tex.), 30 meter by 0.32 mm inner diameter with 0.5 μm film thickness, with argon as a carrier and a temperature ramp from 60° C. to 360° C. increasing at 10° C. per minute). Samples containing new peaks not present in a control sample were also run through a gas chromatograph equipped with a mass spectrometer (Shimadzu GC-2010 and GCMS-QP2010S) to assign the identity of the product.
Preliminary experiments were run with the MBP-FALDR enzyme to probe possible substrates by mixing either NADH or NADPH with an aldehyde (decanal), alcohol (hexadecanol) or fatty acid (oleic acid) and then looking for changes in concentration of one or more of the potential substrates by GC analysis. The assays were allowed to run overnight in a sealed vial under an atmosphere of argon to maintain the reduced forms of the nicotinamide coenzymes. […] This initial result pointed to the likelihood that the MBP-FALDR enzyme is an NADPH-dependent fatty aldehyde reductase, and further experiments were run to characterize this activity. […] The activity of medium chain alcohol dehydrogenases from a broad range of species show rates of oxidation of alcohols that are 10% of the rates of the reduction of the corresponding aldehyde, so it is possible that this rate is too low to detect.

In experiment [2] the test system is MBP-FALDR enzyme (maltose binding protein-fatty aldehyde reductase fusion protein). Nature of the experiment: Continuous spectrophotometric assay of fatty aldehyde reductase activity (NADPH oxidation at 340 nm), substrate comparison and kinetics. Type of experiment: biochemical, Marinobacter aquaeolei VT8. The procedure:
For Fatty Aldehyde Continuous Spectrophotometric Assay Development, all assays were performed in a sealed quartz cuvette with a 1 cm path length. The cuvette and solutions were first degassed with argon on a manifold to remove oxygen from the headspace and solutions. Substrates were initially disbursed into a buffer solution containing BSA at a concentration of 0.5 mg/mL by sonication for three ten second intervals using a microtip sonicator (Branson, Danbury, Conn.). The initial assay for pH optimization included a buffer of 100 mM MOPS, 100 mM MES, and 100 mM TAPS. For reduction assays, 75 μL of a 2 mg/mL NADPH stock was added to bring the initial concentration of NADPH in the cuvette to approximately 200 μM, and an approximate absorbance at 340 nm of 1.2 based on the reported extinction coefficient of 6220 M^−1 cm^−1 for NADPH. In all assays, the reaction was run for at least two minutes with the NADPH and substrate present, prior to the addition of any enzyme, to obtain a background oxidation rate of the NADPH. […] A linear fit of the data was then used to establish the rate, and the initial background rate was subtracted, to determine the rate associated with substrate reduction by the MBP-FALDR enzyme.
Having established that the MBP-FALDR would utilize NADPH as a substrate, it was possible to employ a continuous spectrophotometric assay to monitor substrate reduction rates based on the loss of absorbance at 340 nm when NADPH is oxidized to NADP^+. Using this assay, it was possible to establish the pH dependence of the reduction reaction. The rate of reaction was highest at pH 6.3, with a steep increase in activity going from 8.0 to 6.3. The rate at 6.3 was only slightly greater than at 6.5 ([…]). Several factors had to be considered in establishing the optimal pH of the assay. The first was the background oxidation of the NADPH without any MBP-FALDR enzyme present. […] The assays were run under an argon atmosphere to minimize oxidation of the NADPH by O2. A further consideration was the rapid degradation that occurs at the lowest pH values. […] So, for standard assays used here, a pH of 6.5 was selected, where the activity was minimally affected by slight variations in pH. The following discussion is useful in understanding some features and benefits of the various embodiments of the invention:
Utilizing the continuous assay to monitor MBP-FALDR activity, the dependence of rate on substrate concentration was determined for all of the commercially available substrates described above. Each assay was repeated multiple times to confirm the results from each single determination. The results obtained for cis-11-hexadecenal are shown in FIG. 2 and are representative of the results obtained for repeated determinations and for the other substrates. […] In addition, several factors could limit the observed activity. All of the substrates tested have limited solubility in aqueous solutions, and must first be suspended in solution via sonication. Even under these conditions, it is likely that the substrates exist inside micelles. The sonication process utilized here could result in the partial degradation of the substrate over time. Additionally, the suspension of the substrate in solution is only temporary, and the substrate slowly separates from aqueous solution. Due to these limitations, the measured activity is likely to be an underestimate of the actual activity. In the cell, the enzyme and substrate are likely associated with the hydrophobic membranes. […] It was also observed that the MBP-FALDR enzyme was unstable over time, even when stored at 4° C., losing as much as 50% of the activity over a period of a week. Though the purification is quite rapid, it is uncertain how much activity is lost during preparation. […]

Experiment [3] relates to MBP-FALDR enzyme. Nature of the experiment: Reversibility and cofactor test, spectrophotometric at 340 nm (NADP+, NADH, NAD+). Type of experiment: biochemical, Marinobacter aquaeolei VT8. The note with it: NADH with decanal, NAD+ with decanol, in place of NADPH/NADP+. The source says:
When the assay was used to check for activity with NADH in place of NADPH, NADH was substituted for NADPH at the same concentration as was used for NADPH, and the assay run as described above. Reactions using either NADP^+ or NAD^+ also used the same concentration, but it followed the increase in absorbance monitored at 340 nm. Once the pH optimum was established for the enzyme, TAPS and MOPS were removed from the buffer, and only MES was used.
To test the possible reversibility of the fatty aldehyde reducatase enzyme comprising the amino acid sequence of SEQ ID NO: 2, the oxidation of a number of alcohols to the corresponding aldehyde using NADP^+ as the oxidant were tested. These tests were performed with the MBP-FALDR enzyme. In these assays, the increase in absorbance at 340 nm was followed. Under no conditions did any reduction of NADP^+ occur in the presence of the fatty alcohols tested. As a control, the alcohol dehydrogenase from Thermoanaerobium brokii was followed with 2-propanol and the same stock of NADP^+ to confirm the integrity of the assay.

A further experiment has as its system MBP-FALDR fusion protein. Kind of experiment: Inhibition of decanal reduction by MBP-FALDR in the presence of NADPH. The format is biochemical, Marinobacter aquaeolei VT8. The following applies: at the two concentrations tested. The procedure:
For Fatty Aldehyde Continuous Spectrophotometric Assay Development, all assays were performed in a sealed quartz cuvette with a 1 cm path length. The cuvette and solutions were first degassed with argon on a manifold to remove oxygen from the headspace and solutions. Substrates were initially disbursed into a buffer solution containing BSA at a concentration of 0.5 mg/mL by sonication for three ten second intervals using a microtip sonicator (Branson, Danbury, Conn.). The initial assay for pH optimization included a buffer of 100 mM MOPS, 100 mM MES, and 100 mM TAPS. For reduction assays, 75 μL of a 2 mg/mL NADPH stock was added to bring the initial concentration of NADPH in the cuvette to approximately 200 μM, and an approximate absorbance at 340 nm of 1.2 based on the reported extinction coefficient of 6220 M^−1 cm^−1 for NADPH. In all assays, the reaction was run for at least two minutes with the NADPH and substrate present, prior to the addition of any enzyme, to obtain a background oxidation rate of the NADPH.
Finally, the ability of decanol to inhibit reduction of decanal was also tested.
Referring again to Table 2, the inhibition assays were run in 100 mM MES buffer pH 6.5 with 200 μM NADPH, 250 μM decanal and 125 μg of MBP-FALDR fusion protein. All compounds were dissolved in buffer except dipyridyl, which was dissolved in dimethyl sulfoxide (DMSO).

Experiment [4] is described as follows: Decanal reduction after Factor Xa removal of maltose binding protein. The following applies: MBP removed by Factor Xa cleavage. Type of experiment: biochemical. The procedure: Since all the assays were conducted with the MBP-FALDR fusion protein, a principle concern was whether the fusion protein accurately represented the activity of the wild-type fatty aldehyde reducatase enzyme comprising the amino acid sequence of SEQ ID NO: 2. To examine whether the maltose binding protein affected the activity of the wild-type fatty aldehyde reducatase enzyme comprising the amino acid sequence of SEQ ID NO: 2, the maltose binding protein was removed from the N-terminus of the fatty aldehyde reducatase enzyme comprising the amino acid sequence of SEQ ID NO: 2 by Factor Xa cleavage. The near complete cleavage of maltose binding protein was verified by SDS-PAGE. This cleavage is facilitated by the incorporation of a factor Xa cleavage site (Ile-Glu-Gly-Arg) just upstream of the EcoRI site of the pMAL-c2x vector.

As a reminder, the Km is the concentration of substrate that gives half-maximal velocity. For the molecule `CCCCCCCCCC=O` [Decanal], the “substrate conversion by GC” value in the experiment on MBP-FALDR enzyme [1] (with NADPH, overnight, argon, room temperature, new peak confirmed as decanol by MS) is listed as “decrease in the decanal peak”. The “substrate activity in words” value in experiment [2] (compared with decanal, substrate 100 μg/mL) is “highest activity of the substrates tested”. In addition, the “activity (substrate reduction rate)” value in experiment [2] (substrate 100 μg/mL, 160 μg enzyme) turned out to be 85 nmol/min/mg. In addition, the “Relative Activity (Percent of Decanal)” value in experiment [2] (substrate 100 μg/mL, 160 μg enzyme, decanal = 85 nmols/min/mg = 100) is reported as 100% of Decanal. Moreover, the Michaelis constant (Km) in experiment [2] (substrate of MBP-FALDR, Michaelis-Menten fit, NADPH, FIG. 2 substrate is cis-11-hexadecenal) was about 100 µM. For the same molecule, the “activity over background with NADH or NAD+” value in the experiment with MBP-FALDR enzyme [3] is “no indication of activity over background”.

On to `CCCCCCCCCCO` [decanol], for which the “reverse reaction: aldehyde production by GC” value in the experiment on MBP-FALDR enzyme [1] (with NADP+) was “no detectable levels”. For the same molecule, the “inhibition of decanal reduction” value with MBP-FALDR fusion protein is on record as about 45%. For the same molecule, the “activity over background with NADH or NAD+” value in the experiment on MBP-FALDR enzyme [3] was “no indication of activity over background”.

B1: cleaved fatty aldehyde reducatase enzyme: fatty aldehyde reductase of SEQ ID NO: 2 freed from MBP by Factor Xa cleavage (protein)
chain: MAIQQVHHADTSSSKVLGQLRGKRVLITGTTGFLGKVVLERLIRAVPDIGAIYLLIRGNKRHPDARSRFLEEIATSSVFDRLREADSEGFDAFLEERIHCVTGEVTEAGFGIGQEDYRKLATELDAVINSAASVNFREELDKALAINTLCLRNIAGMVDLNPKLAVLQVSTCYVNGMNSGQVTESVIKPAGEAVPRSPDGFYEIEELVRLLQDKIEDVQARYSGKVLERKLVDLGIREANRYGWSDTYTFTKWLGEQLLMKALNGRTLTILRPSIIESALEEPAPGWIEGVKVADAIILAYAREKVTLFPGKRSGIIDVIPVDLVANSIILSLAEALGEPGRRRIYQCCSGGGNPISLGEFIDHLMAESKANYAAYDHLFYRQPSKPFLAVNRALFDLVISGVRLPLSLTDRVLKLLGNSRDLKMLRNLDTTQSLATIFGFYTAPDYIFRNDELMALANRMGEVDKGLFPVDARLIDWELYLRKIHLAGLNRYALKERKVYSLKTARQRKKAA
modifications: Marinobacter aquaeolei VT8
Turning to B1, the “rate of substrate reduction versus MBP-FALDR fusion protein” value in experiment [4] is listed as “did not reveal any loss or improvement”.
